Data reported in patent US10722478B2, “Methods and compositions for treating fatigue associated with disordered sleep using very low dose cyclobenzaprine” (Tonix Pharma Holdings Limited, priority 2010, dated 2020).

Tests used:
[1] = test system: person diagnosed with multiple sclerosis; conditions: 2 mg then 4 mg at bedtime
Method: A person was diagnosed with multiple sclerosis three years ago. […] However, they have noted that throughout the day they have very low energy levels. Their capacity for physical and mental work has declined to the point where they are unable to function at work. They report getting 6 to 8 hours of sleep each night but feels unrefreshed in the morning. […] They began taking cyclobenzaprine initially at a dose of 2 mg at bedtime. Their doctor increased the dose to 4 mg at bedtime. […] Their doctor asks them to assess their level of fatigue on a scale of 1 to 10 before and after cyclobenzaprine treatment.

[2] = test system: person with traumatic brain injury; conditions: 5 mg at bedtime; within three weeks
Method: A person survived a serious motor vehicle accident with closed head trauma. They underwent six months of physical rehabilitation. […] Because of the spasticity, the neurologist recommended six months of additional physical rehabilitation. […], characterized by both difficulty falling asleep and early-morning awakening. Their neurologist prescribed cyclobenzaprine at a dose of 5 mg at bedtime.

FM patients = conditions: response threshold CAPA2+A3(Norm)≤33%; ITT, LOCF; vs. 33% with placebo, p=0.019
Method: Therefore, an analysis of sleep EEC CAP was performed that measured subtypes CAP A1, CAP A2, and CAP A3 and Total CAP (or CAP A1+A2+A3). Subtype CAP A1 is associated with sleep maintenance or least sleep instability, and subtypes CAP A2 and A3 are associated with moderate to prominent increases in sleep instability.
Because CAP A2 and A3 are most closely associated with sleep instability^26,27, the sum of CAPA2+CAPA3 rates (CAPA2+A3) was used as an indicator of disordered sleep. CAPA2+A3 was normalized (CAPA2+A3(Norm)) by dividing CAPA2+A3 by the total CAP rate (CAPtotal=CAPA1+CAPA2+CAPA3 rates=CAPA1+A2+A3) and expressed as a percentage. Therefore, CAPA2+A3(Norm)=100*CAPA2+A3/CAPA1+A2+A3 and this reflects the percentage of total CAP that is associated with sleep instability.
To determine whether patients experienced nights with a potential CAP response to treatment, it was necessary to determine an empirical threshold below which CAPA2+A3(Norm) values reflect a night of relatively stable sleep for this population. To determine a threshold for CAPA2+A3(Norm) that could be informative for a potential treatment response, the study CAP data were then evaluated by considering a range of cutoff values for CAPA2+A3(Norm) from ≤10% to ≤50%.
Data were coded such that improvements were positive.

fibromyalgia patients = conditions: 10 to 40 mg over a 12-week period; cited from earlier work

## CN(C)CCC=C1c2ccccc2C=Cc2ccccc21 [cyclobenzaprine, 3-(5H-dibenzo[a,d]cyclohepten-5-ylidene)-N,N-dimethyl-1-propanamine]
[1]; with each dose
  level of energy during the day: increased
  quality of sleep: improved
[1]; before treatment 9/10
  level of fatigue on a scale of 1 to 10 after treatment: 3/10
[2]
  level of energy and concentration: markedly better
  sleep: improved substantially
FM patients
  percentage of patients with increased nights of CAP response while on treatment: 72%
Fibromyalgia patients
  muscle tightness: reduction
  pain score: significantly improved
  quality of sleep: significantly improved
  total number of tender points: reduction
